One data set relates to human red blood cells. The experiment in a line: Hemolysis study in human blood. It counts as cell-based. The note with it: 60 min, 37° C.; for % RBC lysis (hemolytic potential): test articles 25, 50, 100 μM, amphotericin B 1, 10, 30, 100 μM. The procedure:
FIG. 4A. […] Compound I-19 in human blood. Red blood cells were isolated from whole blood and resuspended in PBS. […] (final concentrations 25, 50, and 100 μM) and the mixtures were incubated at 37° C. for 60 min. After the incubation, the samples were centrifuged and the absorbance of 100 μL of supernatant was read at 410 nm. % RBC lysis is expressed relative to 100% lysis control. Values represent mean+SEM of n=3 separate experiments.
FIG. 4B. Hemolytic Potential of Compound I-4 in human blood. Red blood cells were isolated from whole blood and resuspended in PBS. 190 μL of diluted RBC suspension and 10 μL of Compound I-4 solutions were mixed at 0 min. (final concentrations 25, 50, and 100 μM) and the mixtures were incubated at 37° C. for 60 min. After the incubation, the samples were centrifuged and the absorbance of 100 μL of supernatant was read at 410 nm. % RBC lysis is expressed relative to 100% lysis control. Values represent mean+SEM of n=3 separate experiments.
FIG. 4C. Hemolytic Potential of Amphotericin B in human blood (positive assay control). Red blood cells were isolated from whole blood and resuspended in PBS. 190 μL of diluted RBC suspension and 10 μl of amphotericin B solutions were mixed at 0 min. (final concentrations 1, 10, 30, and 100 μM) and the mixtures were incubated at 37° C. for 60 min. After the incubation, the samples were centrifuged and the absorbance of 100 μL of supernatant was read at 410 nm. % RBC lysis is expressed relative to 100% lysis control. Values represent mean+SEM of n=3 separate experiments.
To a clear 96-well V-bottom polystyrene plate, the test articles (10 μL) and the diluted RBCs (190 μL) from human or rat blood were mixed for final concentrations of 25, 50, and 100 μM. The reaction mixture was incubated at 37° C. for 60 min. Following the exposure period, the plates were centrifuged. After centrifugation, 70 μL of supernatant (without disturbing the pellet) was transferred to a clean and clear polystyrene flat bottomed 96-well plate and the absorbance of the sample at a single wavelength was measured using a BioTech Synergy H1 Plate Reader at a wavelength of 410 nm. The positive control for this assay was amphotericin B test at concentrations of 1, 10, 30, and 100 μM.

For the next data set, the system named is Wistar rats. It counts as in vivo, Wistar rat. The following applies: for % hit rate: nicotine 0.05-0.2 mg/kg sc, Compound I-4 0.1-3.0 mg/kg ip, Compound I-19 0.03-1.0 mg/kg ip; for % correct / Magazine Head Entries / Omissions / number of trials completed / perseverative responses / premature responses / response latencies (correct, incorrect) / reward latencies / timeout responses: same doses. The procedure:
Animals were trained in eight automated 5C-SRTT operant chambers (Med Associates, St. Albans, VT, USA), controlled by MedPC software (Med Associates). Briefly, each operant chamber was equipped with 5 apertures containing a photocell beam to detect nose pokes and a lamp (2.8 W) that could be illuminated randomly at varying durations. Food pellets (45 mg chow pellet, BioServ, Frenchtown, NJ, USA) were delivered automatically to a magazine, located on the opposite wall to the nose pokes, that was also equipped with a light that turned on to indicate that a pellet had been dispensed. The house-light remained on for the entire session unless an error or omission occurred. Training sessions began with the delivery of a food reward and retrieval triggered the first trial. […] Training began with the stimulus duration set at 10 sec, a limited hold period of 5 sec and an ITI of 5 sec. […] Sessions ended when 40 minutes had lapsed or 100 trials had been completed.
Upon meeting the performance criteria, animals were assessed in the vSD version of the task where the following stimulus durations were presented in a pseudorandom manner: 0.3, 0.6 and 0.9 sec. Later, subjects were assessed in the vITI version where 2.5, 5.0 and 10.0 sec ITIs were employed in a pseudorandom manner. Performance parameters measured were: % hit ((# correct/(# correct+# incorrect including omissions))×100); % correct ((# correct/(# correct+# incorrect excluding omissions))×100); premature responses (# of nose-pokes into any aperture after trial initiation but before onset of the stimulus light); timeout responses (# of nose pokes into any aperture during a timeout period), perseverative responses (# of nose pokes occurring after the correct response had been made but before reward collection); # of food magazine head entries, omissions and total trials completed. The latency to correct response (time taken from the onset of the nose poke light stimulus to making the correct nose poke response), latency to incorrect response (time taken from onset of nose poke light stimulus to making the incorrect nose poke response), and latency to reward (i.e., the magazine latency, time taken from making a correct nose poke response to retrieving the reward from the magazine) was also recorded.
Drug doses and vehicle were administered in a pseudorandom fashion. Drug or vehicle sessions were performed 1-2 times per week with maintenance training (behavioral testing without drug or vehicle injections) interspersed.
All data were collated and entered into Microsoft Excel spreadsheets. The data were subsequently imported into StatView 5.0 for statistical analyses. One and two factor analysis of variance (ANOVA) tests were used with repeated measures when indicated, followed by Fisher LSD or Student Newman Keuls as post-hoc tests. All results were expressed as the mean (±S.E.M.). Differences between means from experimental groups were considered significant at the p<0.05 level. The statistical F values and degrees of freedom associated with the two factor ANOVA analyses are provided in the text of this report. Please refer to the statistical reports in the appendices for the values associated with one factor ANOVAs for the overall means and overall total values.

Molecules are shown by their SMILES.

Consider `COCCOC1(c2ccc(Cl)cc2)c2ccccc2C2=NCCN21` (stereo not drawn) [Compound I-4], for which, in the data set with human red blood cells, the “EC50 (% RBC lysis)” value is given as “outside the concentration range tested” and the “% RBC lysis (hemolytic potential)” value was “no detectable hemolysis”. In addition, in the data set with Wistar rats, the “% hit rate” value is recorded as “decrease in the % hit rate”; the “% correct” value is reported as “no statistically significant dose-related effects”; the Magazine Head Entries result was “decreases in the number of premature responses, timeout responses, and magazine head entries”; the Omissions entry is given as “increase in the number of omissions”. Further, in the data set with Wistar rats, the “number of trials completed” value was “decreases in the number of trials completed”; the perseverative responses entry was “no statistically significant effects on perseverative responses”; the premature responses result is recorded as “the higher 3 doses of Compound I-4 were associated with a decrease”; the “response latencies (correct, incorrect)” value is “increases in the response latencies”. Besides, in the data set with Wistar rats, the reward latencies entry is given as “some increases in the reward latencies, but they were not statistically significant”; the timeout responses entry was “decreases in the number of premature responses, timeout responses, and magazine head entries”.

Consider `Clc1ccc(C2(OCC3OCCO3)c3ccccc3C3=NCCN32)cc1` (stereo not drawn) [Compound I-19], for which, in the data set with human red blood cells, the “EC50 (% RBC lysis)” value is “outside the concentration range tested” and the “% RBC lysis (hemolytic potential)” value is given as “no detectable hemolysis”. In the data set with Wistar rats, the “% hit rate” value is “dose-dependent decrease in the % hit rate”, the “% correct” value is given as “no statistically significant dose-related effects”, the Magazine Head Entries result is given as “decreased in a dose-dependent manner” and the Omissions result is “increase in the number of omissions”. For the same molecule, in the data set with Wistar rats, the “number of trials completed” value was “decreases in the number of trials completed”; the perseverative responses entry was “very modest reduction in the number of perseverative responses”; the premature responses entry is “decrease in the number of premature responses”; the “response latencies (correct, incorrect)” value was “very modest increases in the response latencies”. For the same molecule, in the data set on Wistar rats, the reward latencies result is “some increases in the reward latencies, but they were not statistically significant”; the timeout responses entry is “decrease in the number of premature responses, timeout responses, magazine head entries, and perseverative responses”.

These data come from patent publication US20250108038A1 (priority 2023, published 2025).
